Structures can show the parent of a compound that is named as a salt.
melting point	Compound
287 °C	CCN1CCc2sc3ncn(CCN4CCN(c5cccc6c5CCCC6)CC4)c(=O)c3c2C1 (as salt: hydrochloride) [Example 12, 3,4,5,6,7,8-Hexahydro-6-ethyl-3-[2-(4-tetralin-5-yl-piperazin-1-yl)ethyl]pyrido[3′,4′:4,5]thieno[2,3-d]pyrimidin-4-one]
210 °C	Cc1c(C(=O)N(C)C)sc2ncn(CCN3CCN(c4ccccc4C#N)CC3)c(=O)c12 (as salt: hydrochloride) [Example 15, 3,4-Dihydro-5-methyl-6-dimethylcarbamoyl-3-[2-(4-(2-cyanophenyl)piperazin-1-yl)ethyl]thieno[2,3-d]pyrimidin-4-one]
295 to 300 °C	Cc1c(C(=O)N(C)C)sc2ncn(CCN3CCN(c4ncnc5ccccc45)CC3)c(=O)c12 (as salt: hydrochloride) [Example 29, 3,4-Dihydro-5-methyl-6-dimethylcarbamoyl-3-[2-(4-quinazolin-4-ylpiperazin-1-yl)ethyl]thieno[2,3-d]pyrimidin-4-one]
190 to 191 °C	Cc1c(C(=O)N(C)C)sc2ncn(CCN3CCN(c4cccc5ccccc45)CC3)c(=O)c12 [Example 3, 3,4-Dihydro-5-methyl-6-dimethylcarbamoyl-3-[2-(4-(1-naphthyl)piperazin-1-yl)ethyl]thieno[2,3-d]pyrimidin-4-one]
178 to 180 °C	Cc1ccc2ccccc2c1N1CCN(CCn2cnc3sc(C(=O)N(C)C)c(C)c3c2=O)CC1 [Example 4, 3,4-Dihydro-5-methyl-6-dimethylcarbamoyl-3-[2-(4-(2-methyl-1-naphthyl)piperazin-1-yl)ethyl]-thieno[2,3-d]pyrimidin-4-one]
148 to 150 °C	CCN1CCc2sc3ncn(CCN4CCN(c5ccccc5Cl)CC4)c(=O)c3c2C1 [Example 5, 3,4,5,6,7,8-Hexahydro-6-ethyl-3-[2-(4-(2-chlorophenyl)-piperazin-1-yl)ethyl]pyrido[3′,4′:4,5]thieno[2,3-d]-pyrimidin-4-one]
146 °C	Cc1c(C(=O)N(C)C)sc2ncn(CCN3CCN(c4cccc(C(F)(F)F)c4)CC3)c(=O)c12 [Example 7, 3,4-Dihydro-5-methyl-6-dimethylcarbamoyl-3-[2-(4-(3-trifluoromethylphenyl)piperazin-1-yl)ethyl]thieno[2,3-d]-pyrimidin-4-one]
190 to 192 °C	CCOC(=O)N1Cc2sc3ncn(CCN4CCN(c5cccc6ccccc56)CC4)c(=O)c3c2C1 [Example 8, 3,4,5,7-Tetrahydro-6-carboethoxy-3-[2-(4-(1-naphthyl)-piperazin-1-yl)ethyl]pyrrolo[3′,4′:4,5]thieno[2,3-d]-pyrimidin-4-one]
174 °C	Cc1c(C(=O)N(C)C)sc2ncn(CCN3CCN(c4cccc5c4CCCC5)CC3)c(=O)c12 [Example 13, 3,4-Dihydro-5-methyl-6-dimethylcarbamoyl-3-[2-(4-tetralin-5-ylpiperazin-1-yl)ethyl]thieno[2,3-d]pyrimidin-4-one]
153 °C	Cc1c(C(=O)N(C)C)sc2ncn(CCN3CCN(c4cccc5c4CCC5)CC3)c(=O)c12 [Example 14, 3,4-Dihydro-5-methyl-6-dimethylcarbamoyl-3-[2-(4-indan-4-ylpiperazin-1-yl)ethyl]thieno[2,3-d]pyrimidin-4-one]
170 to 171 °C	COc1ccc(N2CCN(CCn3cnc4sc(C(=O)N(C)C)c(C)c4c3=O)CC2)c(OC)c1 [Example 30, 3,4-Dihydro-5-methyl-6-dimethylcarbamoyl-3-[2-(4-(2,4-dimethoxyphenyl)piperazin-1-yl)ethyl]thieno-[2,3-d]pyrimidin-4-one]
90 to 91 °C	Cc1ccc(C)c(N2CCN(CCn3cnc4sc(C(=O)N(C)C)c(C)c4c3=O)CC2)c1 [Example 31, 3,4-Dihydro-5-methyl-6-dimethylcarbamoyl-3-[2-(4-(2,5-dimethylphenyl)piperazin-1-yl)ethyl]thieno-[2,3-d]pyrimidin-4-one]

The remaining lines, values behind:

Compound	melting point
CCN1CCc2sc3ncn(CCN4CCCN(c5cccc6ccccc56)CC4)c(=O)c3c2C1 (as salt: hydrochloride) [Example 17, 3,4,5,6,7,8-Hexahydro-6-ethyl-3-[2-(4-naphth-1-ylhexahydro-1,4-diazepin-1-yl)ethyl]pyrido[3′,4′:4,5]thieno[2,3-d]-pyrimidin-4-one]	276 to 280 °C
CN1CCc2c(sc3ncn(CCN4CCN(c5ncccn5)CC4)c(=N)c23)C1 (as salt: tartrate) [Example 20, 3,4,5,6,7,8-Hexahydro-7-methyl-3-[2-(4-pyrimidin-2-yl-piperazin-1-yl)ethyl]pyrido[4′,3′:4,5]thieno[2,3-d]-pyrimidin-4-imine]	112 to 114 °C (dec.)
CCOC(=O)N1Cc2sc3ncn(CCN4CCN(c5ncccn5)CC4)c(=O)c3c2C1 [Example 11, 3,4,5,7-Tetrahydro-6-carboethoxy-3-[2-(4-pyrimidin-2-yl-piperazin-1-yl)ethyl]pyrrolo[3′,4′:4,5]thieno[2,3-d]-pyrimidin-4-one]	166 °C
COc1ccccc1N1CCN(CCCn2cnc3sc4c(c3c2=N)CCN(C)C4)CC1 [Example 15, 3,4,5,6,7,8-Hexahydro-7-methyl-3-[3-(4-(2-methoxyphenyl)-piperazin-1-yl)propyl]pyrido[4′,3′:4,5]thieno[2,3-d]pyrimidin-4-imine]	112 to 114 °C
N=c1c2c3c(sc2ncn1CCN1CCN(c2ccccc2)CC1)CN(Cc1ccccc1)CC3 [Example 17, 3,4,5,6,7,8-Hexahydro-7-benzyl-3-[2-(4-phenylpiperazin-1-yl)-ethyl]pyrido[4′,3′:4,5]thieno[2,3-d]pyrimidin-4-imine]	168 to 170 °C
COc1ccccc1N1CCN(CCCn2cnc3sc4c(c3c2=O)CCN(Cc2ccccc2)C4)CC1 [Example 18, 3,4,5,6,7,8-Hexahydro-7-benzyl-3-[3-(4-(2-methoxyphenyl)-piperazin-1-yl)propyl]pyrido[4′,3′:4,5]thieno[2,3-d]-pyrimidin-4-one]	66 to 67 °C
O=c1c2c3c(sc2ncn1CCN1CCN(c2ccccc2)CC1)CN(Cc1ccccc1)CC3 [Example 19, 3,4,5,6,7,8-Hexahydro-7-benzyl-3-[2-(4-phenylpiperazin-1-yl)-ethyl]pyrido[4′,3′:4,5]thieno[2,3-d]pyrimidin-4-one]	70 to 71 °C
CN1CCc2c(sc3ncn(CCN4CCN(c5ncccn5)CC4)c(=O)c23)C1 [Example 27, 3,4,5,6,7,8-Hexahydro-7-methyl-3-[2-(4-pyrimidin-2-ylpiperazin-1-yl)ethyl]pyrido[4′,3′:4,5]thieno[2,3-d]-pyrimidin-4-one]	146 to 148 °C
CN1CCc2c(sc3ncn(CCCN4CCN(c5ccccc5O)CC4)c(=N)c23)C1 [Example 29, 3,4,5,6,7,8-Hexahydro-7-methyl-3-[3-(4-(2-hydroxyphenyl)-piperazin-1-yl)propyl]pyrido[4′,3′:4,5]thieno[2,3-d]-pyrimidin-4-imine]	164 to 166 °C
CN1CCc2c(sc3ncn(CCCN4CCN(c5ncccn5)CC4)c(=N)c23)C1 [Example 36, 3,4,5,6,7,8-Hexahydro-7-methyl-3-[3-(4-pyrimidin-2-yl-piperazin-1-yl)propyl]pyrido[4′,3′:4,5]thieno[2,3-d]-pyrimidin-4-imine]	161 to 163 °C

Source: patent publication US6387912B1, “Utilization of pyrimidine derivatives for preventing and treating cerebral ischaemia” (BASF Aktiengesellschaft, priority 1999, dated 2002)
